Our source for the EC50 values is patent US20210038607A1, “OXADIAZOLYLTHIOPHENE DERIVATIVES USEFUL AS HISTONE DEACETYLASE INHIBITORS” (Karus Therapeutics Limited, priority 2018, published 2021).

The test system of assay [1] is acetylated α-tubulin in A549 lung adenocarcinoma cells. Put plainly: Acetylated α-tubulin in-cell western (ICW) assay. Type of assay: cell-based. Particulars: Homo sapiens, 16 h exposure, relative to 40 μM scriptaid positive control, read-out: EC50 Ac-α-tubulin, A549 cells. On the procedure: Acetylated α-Tubulin and Histone H3 in-Cell Western (ICW) Assays
A549 cells were maintained in DMEM (Life Technologies)+10% FBS+2 mM glutamine & penicillin (10 μg/mL) and streptomycin ([…]. 10,000 A549 cells per well were plated into 96 well tissue culture plates (Corning) and incubated at 37° C. overnight in a humidified atmosphere containing 5% CO2 prior to addition of compounds. Compounds (dissolved in 100% DMSO) were diluted into cell culture media at 2× final assay concentration. 2× compound or DMSO (negative control) were added to cells (final DMSO concentration 0.4%). Untreated control wells received media. For acetylated α-tubulin assays, 40 μM scriptaid was used as a positive control. For acetylated histone H3 assays, 40 μM Trichostatin A (TSA) was used as a positive control. Cells were exposed to compound at 37° C. in a humidified atmosphere containing 5% CO2 for 16 h.
Measurement of the impact of compounds on levels of acetylated α-tubulin and histone H3 was performed using specific antibodies and near-infrared immunofluorescent dyes. Briefly, media was removed from wells of assay plates. Cells were washed once with PBS and fixed in 3.7% formaldehyde PBS solution at room temperature for 20 min. Cells were then permeabilised by washing 5 times in 0.1% triton-X-100 PBS at room temperature with gentle agitation for 5 min per wash. Non-specific antibody staining was blocked by the addition of Odyssey blocking buffer (Li-Cor) for 1.5 h at room temperature with gentle agitation. Cells were then incubated with primary antibody (mouse monoclonal anti-acetylated α-tubulin (clone 6-11B-1), Sigma or rabbit polyclonal anti-acetylated histone H3, Millipore) diluted in Odyssey blocking buffer at 4° C. with gentle shaking overnight (no antibody control and secondary antibody only wells were incubated with Odyssey blocking buffer only). Cells were washed five times with 0.1% tween PBS and labelled with secondary antibody (IR dye 800CW-conjugated goat anti mouse IgG or -goat anti rabbit IgG, Li-Cor) and cell stains Sapphire700 (Li-Cor) and Draq5 (Biostatus) diluted in Odyssey blocking buffer at room temperature in the dark with gentle shaking for 1 h (no antibody control wells were incubated with Odyssey blocking buffer only and secondary antibody only with diluted secondary antibody but no cell stains). Cells were washed with 0.1% Tween PBS five times and scanned using a Li-Cor Odyssey SA plate reader in 700 and 800 nm channels. Acetylated α-tubulin or histone H3 signal was normalised to cell number using the cell stain signal. Percentage increase in acetylated α-tubulin or histone H3 after compound treatment over the mean of DMSO treated controls, relative to scriptaid and TSA positive controls, respectively was calculated. EC50 values were calculated using GraphPad Prism software and nonlinear regression with 0% bottom and 100% top constraints.

For assay [2], the system named is acetylated histone H3 in A549 lung adenocarcinoma cells. Put plainly: Acetylated histone H3 in-cell western (ICW) assay. The format is cell-based. The conditions noted are these: Homo sapiens, 16 h exposure, relative to 40 μM Trichostatin A positive control, read-out: EC50 Ac-histone H3, A549 cells. In outline: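 A549 cells exposed to compound for 16 h at 37 °C (0.4% DMSO final), then fixed and immunostained for acetylated α-tubulin or histone H3 with near-infrared detection, signal normalised to cell stain. Response expressed relative to DMSO controls and to 40 μM scriptaid (tubulin) or 40 μM TSA (H3); EC50 by constrained nonlinear regression.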

The structures appear in SMILES notation.

As a reminder, the EC50 is the concentration giving half of the maximal effect. As to `CS(=O)(=O)c1nccc(N(Cc2ccc(-c3noc(C(F)(F)F)n3)s2)c2cnccn2)n1` [Example CE, 2-Methanesulfonyl-N-(pyrazin-2-yl)-N-({5-[5-(trifluoromethyl)-1,2,4-oxadiazol-3-yl]thiophen-2-yl}methyl)pyrimidin-4-amine], the EC50 in assay [1] and in assay [2] was ≥ 10 µM throughout.
For `FC(F)(F)c1ccc(N(Cc2ccc(-c3noc(C(F)(F)F)n3)s2)c2cnccn2)nn1` [Example DH, N-(Pyrazin-2-yl)-6-(trifluoromethyl)-N-({5-[5-(trifluoromethyl)-1,2,4-oxadiazol-3-yl]thiophen-2-yl}methyl)pyridazin-3-amine], the concentration for a half-maximal effect (EC50) in assay [1] and in assay [2] was ≥ 10 µM in each case.
As for `FC(F)(F)c1nc(-c2ccc(CN(c3cnccn3)c3ccc(N4CCCC4)nn3)s2)no1` [Example DI, N-(Pyrazin-2-yl)-6-(pyrrolidin-1-yl)-N-({5-[5-(trifluoromethyl)-1,2,4-oxadiazol-3-yl]thiophen-2-yl}methyl)pyridazin-3-amine], the EC50 in assay [1] is 1 to 10 µM; in assay [2] it was ≥ 10 µM.
On to `CS(=O)(=O)c1ccc(N(Cc2ccc(-c3noc(C(F)(F)F)n3)s2)c2cnccn2)nn1` [Example DL, 6-Methanesulfonyl-N-(pyrazin-2-yl)-N-({5-[5-(trifluoromethyl)-1,2,4-oxadiazol-3-yl]thiophen-2-yl}methyl)pyridazin-3-amine], for which the results for the EC50 in assay [1] and in assay [2] were 1 to 10 µM and ≥ 10 µM, respectively.
